US20180214506A1, “COMBINATION ADMINISTRATION OF GNRH ANTAGONISTS” (ANTEV LIMITED, priority 2017, published 2018)
Converted amounts (≈) assume the structure as drawn. Where a name gives a salt, the structure may show the parent alone. Read-outs that look alike come from different tables or passages of the source. Non-standard residues stand in square brackets, D forms with d. Residues, ends and D or L forms follow the SMILES beside them. Phe(4-Cl) = N[C@@H](Cc1ccc(Cl)cc1)C(=O)O; dPhe(4-Cl) = N[C@H](Cc1ccc(Cl)cc1)C(=O)O; d2Nal = N[C@H](Cc1ccc2ccccc2c1)C(=O)O; d(hCit) = NC(=O)NCCCC[C@@H](N)C(=O)O; Lys(iPr) = CC(C)NCCCC[C@H](N)C(=O)O; d3Pal = N[C@H](Cc1cccnc1)C(=O)O

Tests used:
[1] = Clinical study A013, s.c. injection 90 mg days 1, 2 and 3: tolerability; format: in vivo, human; details: A013: s.c. 90 mg days 1, 2 and 3
Method: (§1) Comparison of s.c. injection 90 mg days 1, 2 and 3 vs. IM injection day 1 and 8.

[2] = compared with degarelix; cited from earlier work
[3] = Water solubility of teverelix; format: physicochemical
Method: In some instances, the GnRH antagonist can be teverelix ((Ac-D-NaID-pClPhe-D-Pal-Ser-Tyr-D-Hci-Leu-Lys(iPr)-Pro-D-Ala-NH2). Teverelix is a synthetic decapeptide with a water solubility of approximately 10 mg/mL.

[4] = Phase I study EP-24332T-A004, repeated s.c. injections: tolerability; format: in vivo, human; details: 2 doses of 60 mg or 90 mg s.c. at 24 h or 48 h interval
Method: In a second Phase I study (EP-24332T-A004), a second injection was administered 24 h or 48 h after the first in order to increase and prolong the initial peak, as well as increase the teverelix level and consequently the number of subjects castrated. As the previous Phase I study had shown 10 mg and 30 mg to be insufficient to provide a long-term suppression, 2 doses of 60 mg or 90 mg (6 subjects per group) or placebo (4 subjects) were administered at a 24 h interval and 2 doses of 90 mg at a 48 h interval. […] No critical safety findings were reported. […] The protocol of the study included 6 subjects who received 90 mg Teverelix TFA on D1; D2; D3.

[5] = Phase II study 2 x 90 mg i.m. (A014): tolerability; format: in vivo, human; details: A014: i.m. 90 mg day 1 and 8
Method: (§2) The primary objective was to assess the duration of action of an initial “loading” dose regimen of Teverelix TFA delivered IM in terms of suppression of testosterone to below castrate level (0.5 ng/mL [2 nmol/L]). The secondary objectives were to assess the pharmacodynamics of teverelix in terms of ability to suppress and to maintain plasma testosterone levels below castration level (<0.5 ng/mL [2 nmol/L]) for 3 weeks; to assess the effects on luteinising hormone (LH) and prostate specific antigen (PSA); and to assess the safety of Teverelix in terms of incidence of local and systemic tolerability (adverse events [AEs] and changes in laboratory parameters).
(§3) This was a multicenter, open-label, non-controlled study in 14 patients diagnosed with advanced prostate cancer. Patients were screened for inclusion in the study between 1 and 7 days before first administration. Each patient received 2 intramuscular (i.m.) injections of 90 mg Teverelix TFA, 7 days apart, on Study Days 1 and 8. […] Blood samples were taken for the evaluation of teverelix, testosterone and LH in plasma, and PSA levels. Safety and tolerability were assessed throughout the study by monitoring local and systemic tolerability (AEs, clinical laboratory tests, vital signs an electrocardiogram [ECG]).
as §1

[6] = Phase II study 2 x 90 mg i.m. Days 1 and 8 (A014): plasma PK of teverelix; format: in vivo; details: male, human, im; for AUC(0-t) / Cmax / Tmax / AUC(0-inf) / half-life: 90 mg; for AUC(0-t): N=14, read-out: AUC (0-t) Geometric mean; for Cmax: N=14, read-out: Cmax (obs) Geometric mean; for Tmax: N=14, read-out: Tmax (obs) Median
Method: In order to test the hypothesis that and IM injection of a GnRH antagonist could be useful as part of a prostate cancer regimen, a Phase II Multicenter, Open-label Study Investigating the Pharmacokinetics, Pharmacodynamics, Efficacy and Safety of a Teverelix 90 mg, TFA formulation was conducted.
as §2, §3
The geometric means for Cmax(obs), AUC(0-t), and AUC(0-∞) (along with respective coefficients of variations presented in parenthesis); Tmax median (along with the range of Tmax values presented in parenthesis); and arithmetic mean for T1/2,elim (along with standard deviation presented in parenthesis) are presented in Table 1 for each dose of teverelix IM.
The combined geometric means for AUC and AUC(∞) (along with respective coefficients of variations presented in parenthesis); and arithmetic mean for apparent clearance (CL/F) (along with standard deviation presented in parenthesis) for the two i.m. doses of teverelix are presented in Table 2.

[7] = Phase I study D-84812-Z012, single s.c. injection: safety and tolerability; format: in vivo, human; details: doses up to 90 mg, 32 healthy male volunteers
[8] = Phase I study D-84812-Z012, single s.c. injection: pharmacokinetics of teverelix; format: in vivo, human

solubility [3]	AUC(0-t) ([6]; Day 1 (Dose 1): 1 x 90 mg i.m.)	Cmax ([6]; Day 1 (Dose 1): 1 x 90 mg i.m.)	Tmax ([6]; Day 1 (Dose 1): 1 x 90 mg i.m.)	AUC(0-inf) ([6]; Day 1 (Dose 1): 1 x 90 mg i.m., n = 8, read-out: AUC (0-∞) Geometric mean)	half-life ([6]; Day 1 (Dose 1): 1 x 90 mg i.m., n = 8, read-out: T1/2,elim Arithmetic mean (converted))	AUC(0-t) ([6]; Day 8 (Dose 2): 1 x 90 mg i.m.)	AUC(0-inf) ([6]; Day 8 (Dose 2): 1 x 90 mg i.m., N=14, read-out: AUC (0-∞) Geometric mean)	Cmax ([6]; Day 8 (Dose 2): 1 x 90 mg i.m.)	half-life ([6]; Day 8 (Dose 2): 1 x 90 mg i.m., N=14, read-out: T1/2,elim Arithmetic mean (converted))	Tmax ([6]; Day 8 (Dose 2): 1 x 90 mg i.m.)	CL/F ([6]; 2 x 90 mg i.m., N=14, read-out: CL/F Arithmetic mean (converted))	dose proportionality ([8]; between the 60 mg and 90 mg doses, single s.c.)	half-life ([8]; human, plasma, sc, single s.c. injection, doses up to 90 mg, healthy male volunteers)	SMILES	tolerability [1]	local irritation at the administration site [2]	local reactions at the injection sites [4]	tolerability [4]	tolerability [5]	tolerability [7]
~10000 µg/mL (≈ 6.85 mM)	–	–	–	–	–	–	–	–	–	–	–	–	–	CC(=O)N[C@H](Cc1ccc2ccccc2c1)C(=O)N[C@@H](Cc1ccc(Cl)cc1)C(=O)N[C@H](Cc1cccnc1)C(=O)N[C@@H](CO)C(=O)N[C@H](Cc1ccc(O)cc1)C(=O)N[C@H](CCCCNC(N)=O)C(=O)N[C@@H](CC(C)C)C(=O)N[C@@H](CCCCNC(C)C)C(=O)N1CCC[C@H]1C(=O)N[C@H](C)C(N)=O [teverelix, Ac-D-NaID-pClPhe-D-Pal-Ser-Tyr-D-Hci-Leu-Lys(iPr)-Pro-D-Ala-NH2] (Ac-[d2Nal][Phe(4-Cl)][d3Pal]S[dY][d(hCit)]L[Lys(iPr)]P[dA]-NH2)	Very good/good for all patients	less local irritation at the administration site than degarelix	only mild local indurations at the injection sites	tolerated well	–	–
–	1730 ng·h/mL	21.5 ng/mL	2 h	4610 ng·h/mL	6.94 days	8360 ng·h/mL	9380 ng·h/mL	38 ng/mL	16.9 days	1 h	249 mL/min	Dose proportionality was demonstrated	10.5 to 13.8 days	CC(=O)N[C@H](Cc1ccc2ccccc2c1)C(=O)N[C@H](Cc1ccc(Cl)cc1)C(=O)N[C@H](Cc1cccnc1)C(=O)N[C@@H](CO)C(=O)N[C@@H](Cc1ccc(O)cc1)C(=O)N[C@H](CCCCNC(N)=O)C(=O)N[C@@H](CC(C)C)C(=O)N[C@@H](CCCCNC(C)C)C(=O)N1CCC[C@H]1C(=O)N[C@H](C)C(N)=O [Teverelix TFA, teverelix trifluoroacetate] (Ac-[d2Nal][dPhe(4-Cl)][d3Pal]SY[d(hCit)]L[Lys(iPr)]P[dA]-NH2)	–	–	–	–	Very good/good for all patients	tolerated well
